In ChEMBL document CHEMBL1136864, “A one step/one pot synthesis of N,N-bis(phosphonomethyl)amino acids and their effects on adipogenic and osteogenic differentiation of human mesenchymal stem cells” (Bioorg Med Chem, 2009) one finds Activity data, which are given here for four compounds.

A short description of series [1]: Cytotoxicity against human MADS cells at 0.1 to 100 nM. As to conditions: 0.1 µM. Type of series: cell-based.
The nature of series [2]: Toxicity in human MADS cells assessed as inhibition of osteoblast formation at 300 nM after 14 days by Von Kossa staining. Type of series: cell-based. The conditions noted are these: 336 h, 0.3 µM.
Series [3] can be described thus: Inhibition of osteogenesis in human MADS cells assessed as ALP activity at 100 nM. Format: cell-based. As to conditions: 0.1 µM.
Series [4] relates to MADS. Put plainly: Effect on adipogenesis in human MADS cells assessed as GPDH activity at 300 nM. Format: functional, cell-based.
A short description of series [5]: Inhibition of osteogenesis in human MADS cells assessed as ALP activity at 300 nM. As to conditions: 0.3 µM. Type of series: cell-based.
A short description of series [6]: Cytotoxicity against human MADS cells at 100 nM. As to conditions: 0.1 µM. Type of series: cell-based.
In series [7] the test system is MADS. Put plainly: Effect on adipogenic differentiation of human MADS cells into adipocytes at 100 nM after 14 days by Oil red O staining. Format: functional, cell-based.
The subject of series [8] is MADS. Briefly: Effect on adipogenic differentiation of human MADS cells into adipocytes at 300 nM after 14 days by Oil red O staining. Type of series: functional, cell-based.
Series [9] concerns MADS. Briefly: Induction of osteogenesis in human MADS cells assessed as ALP activity at 0.1 to 100 nM. Format: functional, cell-based.
The test system of series [10] is MADS. Put plainly: Effect on adipogenesis in human MADS cells assessed as GPDH activity at 100 nM. Format: functional, cell-based.
The nature of series [11]: Toxicity in human MADS cells assessed as inhibition of osteoblast formation at 100 nM after 14 days by Von Kossa staining. Format: cell-based. As to conditions: 336 h, 0.1 µM.
Series [12] can be described thus: Cytotoxicity against human MADS cells at 300 nM. Format: cell-based. As to conditions: 0.3 µM.

Activity calls are given as the source filed them. The calls are words filed in the database; no cut-off is given here.

On to `O=C(O)C1(N(CP(=O)(O)O)CP(=O)(O)O)CCCC1`, for which the Activity entry in [1] is reported as “Non-toxic”; in [2], “Toxic”; in [3], “Active”; in series [5], “Active”; in [6] it was “Non-toxic”; in [11] it was “Toxic”. In [12], the Activity result is recorded as “Non-toxic”. Also, the outcome with MADS [4], in the series on MADS [7], in the series with MADS [8] and in the series on MADS [10] was inactive. Also, in the series with MADS [9], the outcome was Active.
On to `NCCCC(O)(P(=O)(O)O)P(=O)(O)O`, for which the outcome in the series on MADS [4] was inactive. For the same compound, in the series on MADS [9], the result was Active.
Consider `O=C(O)C1(N(CP(=O)(O)O)CP(=O)(O)O)CCCCC1`, for which the Activity entry in [1] is listed as “Non-toxic”; in series [2], “Toxic”; in series [3], “Active”; in [5] it was “Active”; in [6], “Non-toxic”; in series [11], “Toxic”. Besides, the Activity result in series [12] was “Non-toxic”. For the same compound, the result in the series on MADS [4], with MADS [7], in the series with MADS [8] and with MADS [10] was inactive. In addition, the result with MADS [9] was Active.
Take `CC(C)(C(=O)O)N(CP(=O)(O)O)CP(=O)(O)O`: the Activity result in series [1] was “Non-toxic”; in series [2] it was “Toxic”; in [3] it was “Active”; in series [5], “Active”; in series [6], “Non-toxic”; in [11], “Toxic”. Besides, the Activity entry in [12] is “Non-toxic”. Also, the result in the series with MADS [4], in the series on MADS [7], in the series with MADS [8] and with MADS [10] was inactive. Further, the result in the series with MADS [9] was Active.
